From PubChem BioAssay (NCI)
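Grown in 96-well plates, cells were treated for 48 hours with each compound at five concentrations. Insufficient inhibition: endpoint recorded as highest concentration tested. GI50 is the concentration that inhibits growth by half. TGI: concentration producing complete growth inhibition.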

Tests used:
Assay in all cases: DTP human tumour cell line panel, 48 h
[1] = system: MDA-MB-231 breast
[2] = system: HCT-15 colon
[3] = system: SNB-19 CNS
[4] = system: CCRF-CEM leukemia
[5] = system: T-47D breast
[6] = system: EKVX NSCLC
[7] = system: MCF7 breast
[8] = system: DU-145 prostate
[9] = system: SK-MEL-2 melanoma
[10] = system: NCI/ADR-RES ovarian
[11] = system: UACC-257 melanoma
[12] = system: SN12C renal
[13] = system: RXF 393 renal
[14] = system: SK-OV-3 ovarian
[15] = system: HOP-62 NSCLC
[16] = system: HS 578T breast
[17] = system: ACHN renal
[18] = system: LOX IMVI melanoma
[19] = system: M14 melanoma
[20] = system: RPMI-8226 leukemia
[21] = system: KM12 colon
[22] = system: COLO 205 colon
[23] = system: UO-31 renal
[24] = system: 786-0 renal
[25] = system: SK-MEL-5 melanoma
[26] = system: OVCAR-5 ovarian
[27] = system: SF-268 CNS
[28] = system: NCI-H460 lung
[29] = system: TK-10 renal
[30] = system: A549 NSCLC
[31] = system: MOLT-4 leukemia
[32] = system: NCI-H23 lung
[33] = system: NCI-H522 lung
[34] = system: SK-MEL-28 melanoma
[35] = system: OVCAR-3 ovarian
[36] = system: SF-539 CNS
[37] = system: SF-295 CNS
[38] = system: MALME-3M melanoma
[39] = system: OVCAR-8 ovarian
[40] = system: SR leukemia
[41] = system: OVCAR-4 ovarian
[42] = system: UACC-62 melanoma
[43] = system: CAKI-1 renal
[44] = system: BT-549 breast
[45] = system: U251 CNS
[46] = system: SNB-75 CNS
[47] = system: PC-3 prostate
[48] = system: IGROV1 ovarian
[49] = system: HT29 colon
[50] = system: K-562 leukemia
[51] = system: A498 renal
[52] = system: HCT-116 colon
[53] = system: HL-60(TB) leukemia
[54] = system: MDA-MB-435
[55] = system: HOP-92 NSCLC
[56] = system: SW-620 colon
[57] = system: NCI-H226 lung
[58] = system: HCC-2998 colon

## Fc1c(F)c(C(F)(F)F)c(F)c(F)c1N/N=C/c1cn(Cc2ccccc2)c2ccccc12
[1]
  TGI: 45.6 µM
[2]
  TGI: > 100 µM
[3]
  TGI: 76.8 µM
[4]
  TGI: 48.4 µM
[5]
  TGI: 83.6 µM
[6]
  TGI: 43 µM
[7]
  TGI: 69.5 µM
[8]
  TGI: > 100 µM
[9]
  TGI: 55.7 µM
[10]
  TGI: 59.1 µM
[11]
  TGI: 54 µM
[12]
  TGI: 92 µM
[13]
  TGI: 41.5 µM
[14]
  TGI: 48.4 µM
[15]
  TGI: 22.4 µM
[16]
  TGI: > 100 µM
[17]
  TGI: 81.7 µM
[18]
  TGI: 47.3 µM
[19]
  TGI: 43 µM
[20]
  TGI: 62.7 µM
[21]
  TGI: 45 µM
[22]
  TGI: 26.8 µM
[23]
  TGI: 52.9 µM
[24]
  TGI: 66.8 µM
[25]
  TGI: 36 µM
[26]
  TGI: 41.9 µM
[27]
  TGI: > 100 µM
[28]
  TGI: 27.9 µM
[29]
  TGI: 66.4 µM
[30]
  TGI: 72.7 µM
[31]
  TGI: 83.3 µM
[32]
  TGI: 79.9 µM
[33]
  TGI: 70.1 µM
[34]
  TGI: > 100 µM
[35]
  TGI: 36.6 µM
[36]
  TGI: 42.1 µM
[37]
  TGI: 36.2 µM
[38]
  TGI: > 100 µM
[39]
  TGI: > 100 µM
[40]
  TGI: 67 µM
[41]
  TGI: 78.9 µM
[42]
  TGI: 61.5 µM
[43]
  TGI: 54.3 µM
[44]
  TGI: 80.7 µM
[45]
  TGI: > 100 µM
[46]
  TGI: 62.4 µM
[47]
  TGI: 79.2 µM
[48]
  TGI: > 100 µM
[49]
  TGI: 49.3 µM
[50]
  TGI: 87.1 µM
[51]
  TGI: 88.6 µM
[52]
  TGI: 89.5 µM
[53]
  TGI: 52.6 µM
[54]
  TGI: 54.5 µM
[55]
  TGI: 60.2 µM
[56]
  TGI: > 100 µM

## COc1cc2c3c(n(CCCN4CCCC(O)C4)c(=O)c2cc1OC)-c1cc2c(cc1C3=O)OCO2 (stereo not drawn)
[1]
  GI50: 0.791 µM
  TGI: 1.62 µM
[2]
  GI50: 0.709 µM
  TGI: 1.7 µM
[3]
  GI50: 0.6 µM
  TGI: 10.5 µM
[4]
  GI50: 0.00738 µM
  TGI: 0.278 µM
[5]
  GI50: 1.16 µM
  TGI: 3.2 µM
[6]
  GI50: 1.26 µM
  TGI: 2.54 µM
[57]
  GI50: 1.42 µM
  TGI: 4.31 µM
[7]
  GI50: 0.0107 µM
  TGI: 1.31 µM
[8]
  GI50: < 0.005 µM
  TGI: 0.592 µM
[9]
  GI50: 2.68 µM
  TGI: 28.4 µM
[10]
  GI50: 0.0503 µM
  TGI: 1.06 µM
[11]
  GI50: 7.74 µM
  TGI: 15.1 µM
[12]
  GI50: 0.162 µM
  TGI: 0.964 µM
[14]
  GI50: 3.8 µM
  TGI: 27.2 µM
[15]
  GI50: 0.0194 µM
  TGI: 0.0746 µM
[16]
  GI50: 0.874 µM
  TGI: 2.11 µM
[17]
  GI50: < 0.005 µM
  TGI: 0.32 µM
[18]
  GI50: 0.0213 µM
  TGI: 0.849 µM
[19]
  GI50: 0.0297 µM
  TGI: 0.972 µM
[20]
  GI50: 0.0961 µM
  TGI: 0.447 µM
[21]
  GI50: 0.333 µM
  TGI: 1.49 µM
[22]
  GI50: 2.51 µM
  TGI: 6.33 µM
[23]
  GI50: 0.96 µM
  TGI: 2.24 µM
[24]
  GI50: 0.0277 µM
  TGI: 0.115 µM
[25]
  GI50: 0.318 µM
  TGI: 20.6 µM
[26]
  GI50: 0.931 µM
  TGI: 1.71 µM
[27]
  GI50: 0.593 µM
  TGI: 1.94 µM
[28]
  GI50: < 0.005 µM
  TGI: 6.13 µM
[29]
  GI50: 6.38 µM
  TGI: 14.2 µM
[30]
  GI50: 0.642 µM
  TGI: 1.51 µM
[31]
  GI50: < 0.005 µM
  TGI: 0.678 µM
[32]
  GI50: 0.0421 µM
  TGI: 0.775 µM
[33]
  GI50: 2.34 µM
  TGI: 8.91 µM
[34]
  GI50: 0.885 µM
  TGI: 2.28 µM
[35]
  GI50: 2.14 µM
  TGI: 4.71 µM
[36]
  GI50: < 0.005 µM
  TGI: 0.0384 µM
[37]
  GI50: < 0.005 µM
  TGI: 2.65 µM
[38]
  GI50: 5.71 µM
  TGI: 14.8 µM
[39]
  GI50: 0.587 µM
  TGI: 1.45 µM
[41]
  GI50: 1.07 µM
  TGI: 2.68 µM
[42]
  GI50: 5.01 µM
  TGI: 12.8 µM
[43]
  GI50: 0.00685 µM
  TGI: 1.36 µM
[44]
  GI50: 0.898 µM
  TGI: 3.21 µM
[45]
  GI50: 0.00633 µM
  TGI: 0.854 µM
[46]
  GI50: 0.546 µM
  TGI: 1.57 µM
[47]
  GI50: 0.0879 µM
  TGI: 1.15 µM
[48]
  GI50: 0.836 µM
  TGI: 8.87 µM
[58]
  GI50: 0.0763 µM
  TGI: 1.05 µM
[49]
  GI50: 0.731 µM
  TGI: 9.94 µM
[50]
  GI50: 0.0881 µM
  TGI: 6.87 µM
[51]
  GI50: 7.73 µM
  TGI: 25.1 µM
[52]
  GI50: 0.0157 µM
  TGI: 0.925 µM
[53]
  GI50: 0.597 µM
  TGI: 1.32 µM
[54]
  GI50: 0.836 µM
  TGI: 2.98 µM
[55]
  GI50: 0.0312 µM
  TGI: 0.901 µM
[56]
  GI50: 0.047 µM
  TGI: 7.61 µM
